Read-outs that look alike come from different tables or passages of the source.
How the values were obtained:
[1] = tested on: HMCLs with the low AOX/ROS risk signatures (JJN3, XG-6, XG-19, XG-20, XG-24); experiment: HMCL viability, Cell Titer Glo assay, IC50 at 96h (low AOX/ROS risk signature lines); assay type: cell-based, human; settings: for IC50: Homo sapiens; for fold higher sensitivity of low AOX/ROS HMCLs as compared to high AOX/ROS HMCLs: ratio of median IC50 at 96h, p<0.003
Procedure: (§1) The HMCLs XG-6, XG-19, XG-20, XG24, JJN3, AMO1, LP1, L363, OPM2 and RPMI8226 were grown in RPMI-1640 supplemented with 10% FBS. XG-6, XG-19, XG-20, XG-24, and LP1 media was supplemented with 2 ng/mL recombinant IL-6. Cells were plated in 96-well plate in 200 μL complete medium. After 24h, cells were treated with increasing concentrations of Melphalan (European Pharmacopeia Reference-Standards, France) or Bortezomib (Axon, Medchem, France) and at day 4 post treatment, the viable cells were assessed using Cell Titer Glo assay (Promega, Madison, WI). The IC50 at 96h were determined using GraphPad Prism software.
(§2) Considering the GEP of 40 HMCLs (Moreaux et al., 2011), HMCLs AOX and ROS risk signatures were determined. The 5 HMCLs with the highest (AMO1, L363, LP1, OPM2, RPMI8266) and the lowest (JJN3, XG-6, XG-19, XG-20, XG-24) AOX/ROS scores were selected to assay Melphalan and Bortezomib sensitivities (Moreaux et al., 2012 and Moreaux et al., 2013).

[2] = tested on: HMCLs with high AOX/ROS risk signatures (AMO1, L363, LP1, OPM2, RPMI8266); experiment: HMCL viability, Cell Titer Glo assay, IC50 at 96h (high AOX/ROS risk signature lines); assay type: cell-based; settings: Homo sapiens
Procedure: as §1, §2

[3] = tested on: CD138+ cells from patients (primary myeloma cells); experiment: Primary CD138+ myeloma cells from patient bone marrow samples, flow cytometry with anti-CD138 APC antibody after 5 days; assay type: cell-based, human; settings: 5 mM GSH with 10, 20 and 30 μM Melphalan, n=10 patients, p<0.05
Procedure: After 5 days the percentage and absolute number of CD138^+ cells was assessed by flow cytometry using an anti-CD138 APC antibody. * indicates a significant difference using a Student test for pairs (P≤0.05).

N[C@@H](Cc1ccc(N(CCCl)CCCl)cc1)C(=O)O [Melphalan] was tested, and the IC50 ([1]; JJN-3, 96 h, read-out: IC50 range) was 2.25 to 8.34 µM, the IC50 ([1]; JJN-3, 96 h, read-out: Median IC50) was 3.11 µM and the “fold higher sensitivity of low AOX/ROS HMCLs as compared to high AOX/ROS HMCLs” value [1] was 4 fold. For the same molecule, the IC50 ([2]; read-out: IC50 range) was 9.02 to 18.7 µM and the IC50 ([2]; read-out: Median IC50) was 13.7 µM.

For CC(C)C[C@H](NC(=O)[C@H](Cc1ccccc1)NC(=O)c1cnccn1)B(O)O [Bortezomib], the IC50 ([1]; JJN-3, low AOX/ROS HMCLs, 96h, median over 5 cell lines, read-out: Median IC50) was 0.00051 µM, the IC50 ([1]; JJN-3, low AOX/ROS HMCLs, 96h, range over 5 cell lines, read-out: IC50 range) was 0.00027 to 0.00085 µM and the “fold higher sensitivity of low AOX/ROS HMCLs as compared to high AOX/ROS HMCLs” value [1] was 3.5 fold.

N[C@@H](CCC(=O)N[C@@H](CS)C(=O)NCC(=O)O)C(=O)O [GSH, glutathione] was tested, and the “protection of primary myeloma cells from melphalan induced apoptosis” value [3] was “significantly protect”.
